Holding throughout (type): cell-based
Assay [1] has as its system lysyl hydroxylase. Put plainly: Lysyl hydroxylase activity in extracts of treated human skin fibroblasts (Example 2, pyridine, triazine and N-alkyl analogs). The conditions noted are these: for pIC50: 72 hr (FIG. 4, FIG. 5), read-out: concentration giving 50% inhibition (lysyl hydroxylase). As to the method:
(§1) Cells were treated for 72 hr with minoxidil or its triazine analog at the indicated concentrations. The enzyme activities in extracts of treated cells were measured by tritium release assays (Murad and Pinnell, J. Biol. Chem. 262:11,973 (1987)) and are expressed as a percentage of zero-concentration values. PH, prolyl hydroxylase; LH, lysyl hydroxylase.
Cells were treated for 72 hr with various concentrations of minoxidil or its N-alkyl analogs as indicated. The enzyme activity in extracts of treated cells was measured by tritium release assays (Murad and Pinnell, J. Biol. Chem. 262:11,973 (1987)) and is expressed as a percentage of zero-concentration value. The minoxidil curve is reproduced from FIG. 4.
Cultures of human skin fibroblast (1.5×10^6 cells) were seeded onto 100-mm plates and incubated at 37° in Dulbecco's modified Eagle's medium supplemented with 20% calf serum. After 24 hr, the medium was replaced with medium supplemented with 0.5% heat-inactivated dialyzed calf serum. The incubation was continued for an additional 72 hr in the presence of 0.1-2 μM minoxidil analogs dissolved in 0.12N HCl; the final concentration of HCl was 0.0012N or 0.0024N. Cells treated with HCl only served as control. During the last 3 hr of incubation, cells received […] ascorbic acid to ensure complete hydroxylation of the polypeptide precursors of procollagen (Murad et al, J. Invest. Dermatol. 75:404 (1980)). At the end of the incubation period, cells were harvested by trypsinization and disrupted by sonication in a buffered medium (Murad et al, J. Biol. Chem. 262:11,973 (1987)).
(§2) Lysyl hydroxylase activity in extracts of treated cells was measured with an underhydroxylated procollagen substrate (Murad et al, J. Biol. Chem. 262:11,973 (1987)), which was prepared by labeling cultures of human skin fibroblasts with L-[4,5-^3 H]lysine in the presence of an iron chelator α,α'-dipyridyl (Murad and Pinnell, Conn. Tiss. Res. 13:181 (1985)). The amount of tritium released was quantitated as ^3 HO after vacuum distillation . Prolyl hydroxylase activity was similarly measured with an underhydroxylated procollagen substrate containing L-[4-^3 H]proline (Murad and Pinnell, J. Biol. Chem. 262:11973 (1987); Murad and Pinnell, Conn. Tiss. Res. 13:181 (1985)). The enzyme activities are based on a unit of soluble cell protein. The protein content of cell extracts was determined by a dye-binding techniques using Bio-Rad reagents (Bradford, Anal. Biochem. 72:248 (1976)).
Cells were treated for 72 hr with 1 mM minoxidil or its
structural analogs as indicated. The enzyme activity in extracts
of treated cells was measured by a tritium-release assay and is
expressed as a percentage of HCl-treated control.

The subject of a further assay is prolyl hydroxylase. Kind of assay: Prolyl hydroxylase activity in extracts of treated human skin fibroblasts (Example 2). The conditions noted are these: 72 hr; N,N-diethyl analog up to 2 mM. As to the method:
as §1
Cultures of human skin fibroblast (1.5×10^6 cells) were seeded onto 100-mm plates and incubated at 37° in Dulbecco's modified Eagle's medium supplemented with 20% calf serum. After 24 hr, the medium was replaced with medium supplemented with 0.5% heat-inactivated dialyzed calf serum. […] Cells treated with HCl only served as control. […]
as §2, with “The enzyme activities are based on a unit of soluble cell protein. The protein content of cell extracts was determined by a dye-binding techniques using Bio-Rad reagents (Bradford, Anal. Biochem. 72:248 (1976)).” left out

Assay [2] concerns lysyl hydroxylase. Kind of assay: Lysyl hydroxylase activity in extracts of treated human skin fibroblasts (Example 1, tritium-release assay). The conditions noted are these: for Lysyl hydroxylase activity (%) / effect on lysyl hydroxylase activity (in words): 72 h; for Lysyl hydroxylase activity (%): 1% ethanol; for increase of the level of lysyl hydroxylase activity: 72 h (Table I text); for effect on lysyl hydroxylase activity (in words): cultured fibroblasts, Example 1. Here is the method:
Cultures of human skin fibroblasts grown to confluence were incubated for 72 h in medium supplemented with 1% ethanol containing various concentrations of minoxidil or deoxyminoxidil as indicated. Cells were then harvested, and the enzyme activities in extracts of these cells were measured by tritium-release assays (Murad and Pinnell, J. Biol. Chem. 262:11,973 (1987)). The results are expressed as percentages of zero-concentration values.
Cultures of human skin fibroblasts grown to confluence were incubated for 72 h in medium supplemented with 1% ethanol containing various concentrations of minoxidil or with 1% acetone containing various concentrations of minoxidil sulfate, as indicated. Cells were then harvested, and the enzyme activities in extracts of these cells were measured by tritium release assays (Murad and Pinnell, J. Biol. Chem. 262:11,973 (1987)). The results are expressed as percentages of zero-concentration values.
Skin fibroblast cultures derived from an apparently normal child (GM05659) were obtained from the Institute for Medical Research, Camden, N.J. The cells were subcultured by trypsinization and used before 25 population doublings. Typically, 4×10^5 cells were seeded onto 100-mm (diameter) plastic petri dishes and allowed to grow in 10 ml of Dulbecco's modified Eagle's minimum essential medium containing 5.6 mM glucose, buffered in pH 7.4 with 24 mM sodium biocarbonate/25 mM Hepes and supplemented with 20% (v/v) calf serum which had been inactivated for 30 min at 56° C. The cells were incubated at 37° C. in a humidified atmosphere of 5% CO2 plus 95% air.
After a week, the medium was replaced with medium supplemented with 0.5% heat-inactivated diaylzed calf serum, and the incubation was continued for 72 h in the presence of minoxidil or one of its structural analogs. The compounds were dissolved in 95% ethanol, except minoxidil sulfate which was dissolved in acetone; the final solvent concentration was 1% (v/v). During the last 3 h of incubation, cells received 100 μM Na L-ascorbate to ensure complete hydroxylation of the polypeptide precursors of precollagen (Murad et al, J. Invest. Dermatol. 75:404 (1980)).
The medium was then removed and the cells were washed twice with a solution containing 0.14 M NaCl, 5 mM KCl, 0.3 mM Na2 PO4, and 0.4 mM KH2 PO4, adjusted to pH 7.4. The cells were detached from the plates with a solution containing 0.05% trypsin, 0.54 mM EDTA, 5.5mM glucose, 6.90mM NaHCO3, […], and 5 mM KCl. The trypsinization was terminated with 2 vol of 20% serum-supplemented medium, and the cell number in an aliquot of the suspension was determined using a Coulter counter.
The detached cells were collected by centrifugation at 500g for 6 min at 4° C. washed twice by suspending in phosphate-buffered NaCl/KCl as above, and then centrifuged. The cell pellet was suspended in a medium (1 ml/5×10^6 cells) containing 0.2 M NaCl, 0.1 M glycine, 50 μM dithiothreitol, 20 mM Tris-HCl, buffer (pH 7.5), 0.1% Triton X-100, and 0.01% soybean trypsin inhibitor. The suspension was sonicated for 30 s using a Branson sonifier cell disrupter. The lysate was centrifuged at 27,000g for 1 h at 4° C., and the resulting supernatant was used for prolyl and lysyl hydroxylase assays (Murad and Pinnell, J. Biol. Chem. 262:11, 973 (1987)). The enzyme activities are based on a unit of soluble cell protein.
The protein content of cell extracts was determined by a dye-binding technique using Bio-Rad reagent and protein standard (Bradford, Anal. Biochem. 72:248 (1976)).
Note: Cultures of human skin fibroblasts grown to confluence were
incubated for 72 h in medium supplemented with 1% ethanol containing 1 mM
of the indicated compounds. Cells were then harvested, and the enzyme
activity in extracts of these cells was measured by a tritiumrelease
incubated for 72 h in medium supplemented with 1% ethanol containing 1 nM

The test system of assay [3] is lysyl hydroxylase. The description is as above.
[4] abbreviates: 1 mM, % of solvent-treated controls (Table I).
The mark [5] stands for this setting: 1 nM, % of ethanol-treated controls (Table II).

pIC50: −log10 of the molar value. Entries after “also recorded” stand apart in the source; their conditions may differ.

Here are results for twelve compounds from US5328913A, “Minoxidil analogs as inhibitors of cell proliferation and lysyl hydroxylase” (priority 1992, dated 1994).

Take `Nc1nc(N2CCCCC2)nc(N)[n+]1[O-]` [Compound II (Table III)]: the pIC50 in the assay on lysyl hydroxylase [1] was around 3.10. Further, the “effect on lysyl hydroxylase activity (in words)” value with lysyl hydroxylase [1] (72 hr, Example 2, listed as triazine analog) was “no significant effect up to 0.2 mM; also recorded: less potent than minoxidil”. Also, the “effect on prolyl hydroxylase activity (in words)” value in the assay with prolyl hydroxylase was “failure to decrease the activity of prolyl hydroxylase”.

Take `CC1(C)CC(O)CC(C)(C)N1[O]` [4-Hydroxy-2,2,6,6-tetramethylpiperidine-N-oxyl]: the “Lysyl hydroxylase activity (%)” value with lysyl hydroxylase [2] (setting [4]) was 130%. Also, the “increase of the level of lysyl hydroxylase activity” value in the assay on lysyl hydroxylase [2] is 30-40%.

In the case of `O=C(O)c1cc[n+]([O-])cc1` [Isonicotinic acid N-oxide], the “Lysyl hydroxylase activity (%)” value in the assay with lysyl hydroxylase [3] (1 mM, dissolved in aqueous medium, 72 h, % of solvent-treated controls (Table I)) was found to be 90%.

For the compound `CN1CCN(c2cc(N)[n+]([O-])c(N)n2)CC1` [Compound IX (Table II)], in the assay on lysyl hydroxylase [2], the “effect on lysyl hydroxylase activity (in words)” value was “inactive”. For the same compound, in the assay on lysyl hydroxylase [3] (0.1 mM, dissolved in HCl, final concentration 0.0012 N, 72 h (Table II footnote a)), the “Lysyl hydroxylase activity (%)” value is on record as 109%.

`Nc1[nH]c(=O)c2nc[nH]c2[n+]1[O-]` [Guanine 3-N-oxide]: the “increase of the level of lysyl hydroxylase activity” value with lysyl hydroxylase [2] is listed as 30-40%. Moreover, the “Lysyl hydroxylase activity (%)” value in the assay with lysyl hydroxylase [3] (1 mM, dissolved in NaOH, final concentration 0.001 N, 72 h, % of solvent-treated controls (Table I)) amounted to 132%.

`[O-][n+]1ccc(-c2ccccc2)cc1` [4-Phenylpyridine-N-oxide]: in the assay on lysyl hydroxylase [3] (0.3 mM, dissolved in ethanol, final concentration 0.3%, 72 h, % of solvent-treated controls (Table I)), the “Lysyl hydroxylase activity (%)” value came out at 99%.

`CC1(C)CCC=[N+]1[O-]` [5,5-Dimethyl-1-pyrroline-N-oxide]: the “Lysyl hydroxylase activity (%)” value with lysyl hydroxylase [2] (setting [4]) was 103%.

For the compound `Cc1cc(N2CCCC2)nc(N)[n+]1[O-]` [Compound VII (Table II)], in the assay on lysyl hydroxylase [2] (setting [5]), the “Lysyl hydroxylase activity (%)” value amounted to 88%. Moreover, in the assay on lysyl hydroxylase [2], the “effect on lysyl hydroxylase activity (in words)” value is “inactive”.

Regarding `Cc1cc(N2CCOCC2)nc(N)[n+]1[O-]` [Compound VIII (Table II)], the “Lysyl hydroxylase activity (%)” value with lysyl hydroxylase [2] (setting [5]) was 91%. Moreover, the “effect on lysyl hydroxylase activity (in words)” value in the assay with lysyl hydroxylase [2] is “inactive”.

In the case of `CCN(CC)c1cc(N)[n+]([O-])c(N)n1` [Compound III (Table III)], the pIC50 in the assay on lysyl hydroxylase [1] was around 3.00. For the same compound, in the assay on prolyl hydroxylase, the “effect on prolyl hydroxylase activity (in words)” value is “no significant effect on prolyl hydroxylase activity”.

Take `Cc1c([N+](=O)[O-])c(N2CCCCC2)nc(N)[n+]1[O-]` [Compound VI (Table II)]: the “Lysyl hydroxylase activity (%)” value with lysyl hydroxylase [2] (setting [5]) was 34%. Further, the “effect on lysyl hydroxylase activity (in words)” value in the assay on lysyl hydroxylase [2] was “no significant effect on its inhibitory activity”.

Turning to `[O-][n+]1cccc(O)c1` [3-Hydroxypyridine-N-oxide], the “Lysyl hydroxylase activity (%)” value in the assay with lysyl hydroxylase [2] (setting [4]) amounted to 99%.
